Measured values reported in publication PMC4275256 (PLoS ONE, 2014).

Key:
Conditions in all cases: read-out: Km[HCO3 ^-]; pH 8, 50 mM NaCl, 24 °C; labelled compound; corrected for respiratory Ci
SbtA7942 = target: T1, SbtA7942 (Synechococcus elongatus, UniProt Q31N64)
T1 construct: gene Synpcc7942_1475

SbtA6307 (SbtA1) = tested on: T2, SbtA6307 (SbtA1)
T2 construct: gene sbtA

SbtA6803 = target: T3, SbtA6803 (Synechocystis sp. PCC 6803, UniProt P73953)
T3 construct: gene slr1512

SbtA5701 (SbtA1) = tested on: T4, SbtA5701 (SbtA1)
T4 construct: gene sbtA

T1 sequence (Q31N64 1-373): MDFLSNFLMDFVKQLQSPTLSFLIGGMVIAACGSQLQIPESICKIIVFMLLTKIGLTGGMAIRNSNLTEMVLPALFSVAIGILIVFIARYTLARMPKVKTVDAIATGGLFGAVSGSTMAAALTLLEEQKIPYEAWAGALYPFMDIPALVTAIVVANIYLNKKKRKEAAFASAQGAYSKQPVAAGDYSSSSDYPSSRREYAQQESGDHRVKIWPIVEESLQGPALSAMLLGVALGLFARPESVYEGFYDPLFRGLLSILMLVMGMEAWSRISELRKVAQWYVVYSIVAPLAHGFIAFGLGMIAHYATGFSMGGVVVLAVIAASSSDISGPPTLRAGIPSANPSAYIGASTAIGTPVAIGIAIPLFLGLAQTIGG
T3 sequence (P73953 1-374): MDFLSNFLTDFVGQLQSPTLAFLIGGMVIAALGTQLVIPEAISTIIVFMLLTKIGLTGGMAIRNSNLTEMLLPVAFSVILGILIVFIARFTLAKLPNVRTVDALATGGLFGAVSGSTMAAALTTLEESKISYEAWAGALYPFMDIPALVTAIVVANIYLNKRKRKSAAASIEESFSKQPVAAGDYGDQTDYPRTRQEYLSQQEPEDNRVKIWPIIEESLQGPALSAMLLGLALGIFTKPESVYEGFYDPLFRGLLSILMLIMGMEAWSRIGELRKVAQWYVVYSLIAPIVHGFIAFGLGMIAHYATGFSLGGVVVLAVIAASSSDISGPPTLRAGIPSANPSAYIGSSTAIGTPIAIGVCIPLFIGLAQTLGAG

Km (SbtA7942): < 100 µM
Km (SbtA6307 (SbtA1)): < 100 µM
Km (SbtA6803): < 100 µM
Km (SbtA5701 (SbtA1)): < 100 µM
SMILES: O=C(O)O [HCO3 ^-]
